From paper PMC3365014, “Specific Recognition of p53 Tetramers by Peptides Derived from p53 Interacting Proteins” (PLoS ONE, 2012)
Entries after “also recorded” stand apart in the source; their conditions may differ.

Tested on: FlAsH-labeled full-length p53 (M133L/V203A/N239Y/N268D)
Test: Fluorescence-monitored analytical ultracentrifugation sedimentation velocity
Assay type: binding
Conditions: 25–50 nM FlAsH-p53, peptide up to 500 µM or solubility limit; 25 mM NaPi pH 7.2, 150 mM NaCl, 10% glycerol, 10°C
Experimental: We tested whether the peptides that bind tetrameric p53CTD can bind specifically to tetrameric p53 in a mixture of the different oligomers. Testing the specificity of the peptides for tetrameric p53 must be performed at very low p53 concentrations (<100 nM), where a significant population of dimers is present in addition to the tetramers [21]. Therefore, we used fluorescence-monitored analytical ultracentrifugation sedimentation velocity experiments using FlAsH-labeled full-length p53. The fluorescent label on p53 enables working at nanomolar protein concentrations and allows for specific detection of the protein without interference from any other molecule in the solution.
We incubated FlAsH-p53 with different concentrations of the peptides and measured the sedimentation profiles of the protein (Figure 7). […] Sedimentation coefficients of∼2 S correspond to dimers and∼3 S correspond to tetramers. Presumably, sedimentation coefficients of up to∼4 S correspond to p53 tetramers bound to one or more peptide molecules. […] Most likely higher sedimentation coefficients (>4 S) correspond to higher-order oligomers of p53.
C-terminally FlAsH-tagged (CCPGCC) p53 was expressed and reacted with FlAsH-EDT2 as described [24]. This introduces a specific fluorescent label at the carboxy terminus of p53. The protein was dialyzed against 25 mM NaPi pH = 7.2, 150 mM NaCl, 14.2 mM β-mercaptoethanol, 0.2 mg/ml BSA and 10% glycerol. […] The measurements were performed in a Beckman-Coulter Optima XL-I ultracentrifuge with an Aviv fluorescence detection system [29] in SedVel60K-FDS fluorescence velocity cells. The samples were equilibrated in the cells at 10°C for 3 hours before centrifugation. The AUC run was performed as described [23], [48] and analyzed using SedFit software [56].

SMILES: CSCC[C@H](NC(=O)CNC(=O)[C@@H]1CCCN1C(=O)[C@H](CCC(N)=O)NC(=O)[C@H](CC(C)C)NC(=O)[C@@H](N)[C@@H](C)O)C(=O)N[C@@H](CCCNC(=N)N)C(=O)N[C@H](C(=O)N[C@@H](CCCNC(=N)N)C(=O)N[C@@H](CCSC)C(=O)N[C@@H](CC(C)C)C(=O)N[C@@H](CC(=O)O)C(=O)N[C@@H](CC(=O)O)C(=O)N[C@@H](Cc1ccc(O)cc1)C(=O)N[C@@H](CCC(=O)O)C(N)=O)C(C)C [Cul7(376–390)]
- AUC effect: a specific shift of the tetramer peak was observed but at much higher concentrations, and no high-order oligomers were formed; also recorded: causes a shift of the tetramer peak at very high peptide concentrations; also recorded: Tetramer shift

SMILES: CC[C@H](C)[C@H](NC(=O)[C@H](CCC(=O)O)NC(=O)[C@H](CCC(=O)O)NC(=O)[C@H](Cc1ccc(O)cc1)NC(=O)[C@H](CC(=O)O)NC(=O)[C@H](CC(=O)O)NC(=O)[C@H](CC(C)C)NC(=O)[C@H](CCSC)NC(=O)[C@H](CCCNC(=N)N)NC(=O)[C@@H](NC(=O)[C@H](CCCNC(=N)N)NC(=O)[C@H](CCSC)NC(=O)CN)C(C)C)C(=O)N[C@@H](CO)C(=O)N[C@@H](C)C(N)=O [PARC(386–400)]
- AUC effect: a specific shift of the tetramer peak was observed but at much higher concentrations, and no high-order oligomers were formed; also recorded: Tetramer shift
